Drawing on ChEMBL document CHEMBL4052632 (Eur J Med Chem, 2017), this text covers IC50 and inhibition for 26 compounds.

One assay in a line: cells. Conditions: Homo sapiens, OVCA433, 48 h.
The next assay relates to A2780. Description: Antiproliferative activity against human A2780 cells measured after 48 hrs by MTT assay. Type of assay: functional, cell-based. Conditions: A2780, 48 h. On the technique in general: Tetrazolium dyes change colour on reduction, which living cells bring about.
Assay [1] has as its target T1, Glycogen synthase kinase-3 beta (Homo sapiens, UniProt P49841). Description: biochemical.
Description: Inhibition of recombinant N-terminal His6-tagged human GSK3beta H350L mutant expressed in baculovirus infected Sf21 insect cells using polypeptide GS-2 as substrate after 30 mins in presence of ATP by kinase-glo luminescence assay
The test system of assay [2] is Glycogen synthase kinase-3 beta (Homo sapiens), P49841 [UNDEFINED MUTATION]. Description: Non-competitive inhibition of recombinant N-terminal His6-tagged human GSK3beta H350L mutant expressed in baculovirus infected Sf21 insect cells at 6.25 to 12.5 uM in presence of varying levels of ATP and constant GS-2 substrate concentration after 30 mins by double reciprocal plot analysis.

Assay [3] shares this test system. Kind of assay: Non-competitive inhibition of recombinant N-terminal His6-tagged human GSK3beta H350L mutant expressed in baculovirus infected Sf21 insect cells at 6.25 to 12.5 uM in presence of constant levels of ATP and varying GS-2 substrate concentration after 30 mins by double reciprocal plot analysis.
Assay [4] has as its target T1, Glycogen synthase kinase-3 beta.
Description: Inhibition of GSK3beta (unknown origin)
The target in assay [5] is Receptor tyrosine-protein kinase erbB-4 (Homo sapiens) (UniProt Q15303). Description: Inhibition of ErbB4 (unknown origin) using poly (Glu, Tyr) 4:1 as substrate after 1 hr by ELISA relative to control. As to conditions: concentration not given here.
For assay [6], the system named is Glycogen synthase kinase-3 beta (Homo sapiens), P49841 [UNDEFINED MUTATION]. Description: Non-competitive inhibition of recombinant N-terminal His6-tagged human GSK3beta H350L mutant expressed in baculovirus infected Sf21 insect cells at 20 to 50 uM in presence of varying levels of ATP and constant GS-2 substrate concentration after 30 mins by double reciprocal plot analysis.

The test system is the same in assay [7]. Description: Non-competitive inhibition of recombinant N-terminal His6-tagged human GSK3beta H350L mutant expressed in baculovirus infected Sf21 insect cells at 20 to 50 uM in presence of constant levels of ATP and varying GS-2 substrate concentration after 30 mins by double reciprocal plot analysis.

Activity calls are given as the source filed them. No cut-off for these calls is given here.

Glycogen synthase kinase-3 beta (Homo sapiens), P49841 [UNDEFINED MUTATION], sequence (P49841 whole entry, looked up, stated change not applied): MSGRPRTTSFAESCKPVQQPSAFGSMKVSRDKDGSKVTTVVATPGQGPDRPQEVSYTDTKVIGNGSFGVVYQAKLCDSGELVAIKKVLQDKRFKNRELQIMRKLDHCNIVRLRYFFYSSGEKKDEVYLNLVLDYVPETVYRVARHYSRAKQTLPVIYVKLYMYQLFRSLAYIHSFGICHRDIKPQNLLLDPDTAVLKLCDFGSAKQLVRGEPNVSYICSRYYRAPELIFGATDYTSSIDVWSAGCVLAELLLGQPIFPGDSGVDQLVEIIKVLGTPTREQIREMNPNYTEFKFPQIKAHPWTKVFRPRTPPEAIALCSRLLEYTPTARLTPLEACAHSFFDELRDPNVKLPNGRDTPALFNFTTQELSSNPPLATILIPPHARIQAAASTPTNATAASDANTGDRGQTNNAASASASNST
T1 sequence (P49841 whole entry): as the sequence (P49841 whole entry, looked up, stated change not applied) above
Receptor tyrosine-protein kinase erbB-4 (Homo sapiens), sequence (Q15303 whole entry): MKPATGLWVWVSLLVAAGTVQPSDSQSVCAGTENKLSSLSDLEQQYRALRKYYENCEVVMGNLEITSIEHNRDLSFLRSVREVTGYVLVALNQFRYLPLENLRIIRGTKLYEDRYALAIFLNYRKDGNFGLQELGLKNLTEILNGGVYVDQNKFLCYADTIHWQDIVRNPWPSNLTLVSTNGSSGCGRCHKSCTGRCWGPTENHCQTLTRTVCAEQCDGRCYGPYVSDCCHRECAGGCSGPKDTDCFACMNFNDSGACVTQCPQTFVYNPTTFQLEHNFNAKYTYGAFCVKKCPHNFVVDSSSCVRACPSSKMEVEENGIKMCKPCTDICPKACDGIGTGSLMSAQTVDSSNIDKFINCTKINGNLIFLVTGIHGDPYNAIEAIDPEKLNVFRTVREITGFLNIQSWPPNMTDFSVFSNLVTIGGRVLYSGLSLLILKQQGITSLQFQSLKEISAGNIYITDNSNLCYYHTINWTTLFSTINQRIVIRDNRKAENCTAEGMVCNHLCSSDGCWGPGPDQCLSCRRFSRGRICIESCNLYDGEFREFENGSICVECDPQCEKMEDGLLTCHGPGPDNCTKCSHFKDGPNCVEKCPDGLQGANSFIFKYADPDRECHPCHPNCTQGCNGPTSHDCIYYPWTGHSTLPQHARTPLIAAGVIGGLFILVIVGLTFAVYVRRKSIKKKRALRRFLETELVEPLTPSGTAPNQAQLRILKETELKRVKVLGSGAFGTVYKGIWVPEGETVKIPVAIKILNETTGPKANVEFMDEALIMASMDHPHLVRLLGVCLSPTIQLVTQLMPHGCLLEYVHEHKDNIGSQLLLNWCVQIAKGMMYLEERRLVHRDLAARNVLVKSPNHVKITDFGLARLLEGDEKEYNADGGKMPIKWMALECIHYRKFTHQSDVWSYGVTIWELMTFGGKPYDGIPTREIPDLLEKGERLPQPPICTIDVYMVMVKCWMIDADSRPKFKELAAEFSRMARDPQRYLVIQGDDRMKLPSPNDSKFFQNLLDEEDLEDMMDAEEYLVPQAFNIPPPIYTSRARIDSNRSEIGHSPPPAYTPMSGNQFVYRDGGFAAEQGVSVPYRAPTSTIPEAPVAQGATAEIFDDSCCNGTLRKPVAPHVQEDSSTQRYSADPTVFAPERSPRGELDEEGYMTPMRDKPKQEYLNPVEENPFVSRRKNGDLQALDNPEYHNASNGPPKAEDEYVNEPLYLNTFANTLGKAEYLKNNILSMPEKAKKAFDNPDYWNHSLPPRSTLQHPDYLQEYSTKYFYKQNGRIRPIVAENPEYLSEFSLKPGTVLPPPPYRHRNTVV
Description for cells: Antiproliferative activity against human OVCA433 cells measured after 48 hrs by MTT assay

Consider `CCCCCCCCCCCCNC(=O)C1Sc2ccccc2N(CC)C1=O` (configuration not stated), for which the IC50 is above 100 µM in “cells”, 15.5 µM in the assay on A2780 and 22.9 µM in assay [1].

Consider `CCCCCCCCCCC(=O)NC1CCN(C(=O)C2Sc3ccccc3N(CC)C2=O)CC1` (configuration not stated), for which the IC50 was 34.4 µM in the assay “cells”, 23.4 µM in the assay on A2780 and 45.9 µM in assay [1].

Take `Cn1sc(=O)n(Cc2ccccc2)c1=O`: the concentration for half-maximal inhibition (IC50) turned out to be 15.3 µM in “cells” and 20 µM with A2780.

On to `CCCCCCCCCCCCCC(=O)N1CCN(C(=O)C2Sc3ccccc3N(CC)C2=O)CC1` (configuration not stated), for which the IC50 is 16.9 µM in the assay “cells”, 16.7 µM in the assay with A2780 and 18.9 µM in assay [1].

Take `CCCCCCCCCCCCCCCC(=O)N1CCN(C(=O)C2Sc3ccccc3N(CC)C2=O)CC1` (configuration not stated): the inhibition result in assay [2] and in [3] was “Active” each time. Besides, the results for the IC50 (in “cells”; with A2780; in assay [1]) were 15.4 µM, 13.2 µM and 8.7 µM, respectively.

Take `CCCCCCCCCC(=O)N1CCC(NC(=O)C2Sc3ccccc3N(CC)C2=O)CC1` (configuration not stated): the values for the IC50 (in the assay “cells”; with A2780; in [1]) were 47.7 µM, 23.6 µM and 74.9 µM, respectively.

Turning to `CCCCCCCCCC(=O)N1CCN(C(=O)C2Sc3ccccc3N(CC)C2=O)CC1` (configuration not stated), the figures for the IC50 (in the assay “cells”; in the assay on A2780; in [1]) were 89.5 µM, 36 µM and 51.7 µM, respectively.

For `CCCCCCCCCCCCCC(=O)N1CCC(NC(=O)C2Sc3ccccc3N(CC)C2=O)CC1` (configuration not stated), the IC50 in the assay “cells” was determined as 14.9 µM; with A2780, 13.1 µM; in [1], 27.3 µM.

In the case of `CCCCCCCCCCCCCC(=O)NC1CCN(C(=O)C2Sc3ccccc3N(CC)C2=O)CC1` (configuration not stated), the figures for the IC50 (in the assay “cells”; with A2780; in assay [1]) were 26.2 µM, 9.1 µM and 33.4 µM, respectively.

`CCCCCCCCCCCCCCCCC(=O)NC1CCN(C(=O)C2Sc3ccccc3N(CC)C2=O)CC1` (configuration not stated): the IC50 is above 100 µM in the assay “cells”, 4.7 µM in the assay on A2780 and 46.7 µM in [1].

Take `CCN1C(=O)C(C(=O)N2CCC(NC(=O)CCCCCc3ccccc3)CC2)Sc2ccccc21` (configuration not stated): the results for the IC50 (in the assay “cells”; in the assay on A2780; in assay [1]) were above 100 µM, 36 µM and above 100 µM, respectively.

As to `O=C1Cc2cc(Br)ccc2/C1=c1/[nH]c2ccccc2/c1=C\O`, the midpoint of inhibition in assay [4], the IC50, lay at 0.005 µM.

`CCCCCCCCC(=O)N1CCN(C(=O)C2Sc3ccccc3N(CC)C2=O)CC1` (configuration not stated): the figures for the IC50 (in “cells”; with A2780; in [1]) were 81.8 µM, 34.1 µM and above 100 µM, respectively.

With `CCCCCCCCC(=O)NC1CCN(C(=O)C2Sc3ccccc3N(CC)C2=O)CC1` (configuration not stated), the IC50 was above 100 µM in “cells”, 33.1 µM with A2780 and above 100 µM in assay [1].

For the compound `CCCCCCCCC(=O)N1CCC(NC(=O)C2Sc3ccccc3N(CC)C2=O)CC1` (configuration not stated), the IC50 is 90.6 µM in the assay “cells”, 24.7 µM in the assay with A2780 and above 100 µM in [1].

For `CCCCCCCCCC(=O)NC1CCN(C(=O)C2Sc3ccccc3N(CC)C2=O)CC1` (configuration not stated), the IC50 was 77.4 µM in the assay “cells”, 27.2 µM in the assay on A2780 and 68.3 µM in assay [1].

As to `CCCCCCCCCCCCCCCC(=O)N1CCC(NC(=O)C2Sc3ccccc3N(CC)C2=O)CC1` (configuration not stated), the IC50 in the assay “cells” turned out to be 30.4 µM; with A2780 it was 11.4 µM; in [1], 18.6 µM.

For `CCCCCCCCCCCC(=O)NC1CCN(C(=O)C2Sc3ccccc3N(CC)C2=O)CC1` (configuration not stated), the IC50 came to 28.4 µM in “cells”, 13 µM in the assay on A2780 and 33.4 µM in [1].

As to `CCCCCCCCCCCC(=O)NNC(=O)C1Sc2ccccc2N(CC)C1=O` (configuration not stated), the IC50 was above 100 µM in “cells”, 40.7 µM in the assay with A2780 and 11.9 µM in assay [1].

Take `CN(C)C/C=C/C(=O)Nc1cc2c(Nc3ccc(F)c(Cl)c3)ncnc2cc1O[C@H]1CCOC1`: the inhibition in [5] turned out to be 98.2%.

With `CCCCCCCCCCCCCCCC(=O)NC1CCN(C(=O)C2Sc3ccccc3N(CC)C2=O)CC1` (configuration not stated), the inhibition result in assay [6] and in assay [7] was “Active” throughout. Moreover, the IC50 in the assay “cells” amounted to 69.8 µM; in the assay on A2780, 3.5 µM; in [1], 11.7 µM.

With `CCCCCCCCCCCC(=O)N1CCC(NC(=O)C2Sc3ccccc3N(CC)C2=O)CC1` (configuration not stated), the IC50 in the assay “cells” is 26.8 µM; with A2780, 16.6 µM; in assay [1] it was 29.7 µM.

As for `CCCCCCCCCCC(=O)N1CCN(C(=O)C2Sc3ccccc3N(CC)C2=O)CC1` (configuration not stated), the IC50 was determined as 22.9 µM in “cells”, 21.8 µM in the assay on A2780 and 27.1 µM in [1].

On to `CCCCCCCCCCC(=O)N1CCC(NC(=O)C2Sc3ccccc3N(CC)C2=O)CC1` (configuration not stated), for which the figures for the IC50 (in the assay “cells”; in the assay on A2780; in assay [1]) were 28.2 µM, 16.6 µM and 44.3 µM, respectively.

As to `CCCCCCCCCCCCCCC(=O)N1CCC(NC(=O)C2Sc3ccccc3N(CC)C2=O)CC1` (configuration not stated), the IC50 in the assay “cells” is 17.5 µM; with A2780, 9 µM; in [1], 17.9 µM.

Regarding `CCCCCCCCCCCC(=O)N1CCN(C(=O)C2Sc3ccccc3N(CC)C2=O)CC1` (configuration not stated), the figures for the IC50 (in “cells”; with A2780; in assay [1]) were 19.5 µM, 16.6 µM and 23.2 µM, respectively.

What is called IC50 is the concentration that gives 50% inhibition. A low value points to higher potency. What is called inhibition is the share of the control response that was lost under treatment.
